Values quoted from earlier work as cited in US20250352504A1, “LEVOCARNITINE AND TRIMETAZIDINE BILAYER TABLET AND PREPARATION METHOD THEREOF” (Changzhou High-tech Industrial Development Zone 3D …, priority 2024, published 2025).
Structures can show the parent of a compound that is named as a salt. Where two headings read alike, the source gives them in different places.

Experiments:
[1] = crystalline powder

| solubility (acetone) | solubility (formic acid) | hygroscopicity [1] | SMILES | solubility (ethanol) | solubility (ether) | solubility (water) | solubility (0.1 mol/L hydrochloric acid solution) | solubility (0.1 mol/L sodium hydroxide solution) | solubility (acetic acid) | solubility (methanol) |
| --- | --- | --- | --- | --- | --- | --- | --- | --- | --- | --- |
| almost insoluble | easily soluble | strong hygroscopicity | C[N+](C)(C)C[C@H](O)CC(=O)[O-] [Levocarnitine, (3R)-3-hydroxy-4-(trimethylammonio) butanoate] | readily soluble | almost insoluble | readily soluble |  |  |  |  |
|  |  |  | COc1ccc(CN2CCNCC2)c(OC)c1OC [Trimetazidine dihydrochloride, 1-(2,3,4-Trimethoxybenzyl) piperazine dihydrochloride] | slightly soluble | almost insoluble | highly soluble | highly soluble | highly soluble | easily soluble | soluble |
